The results in this text go back to US4634766A, “1,4-diaza-phenothiazines” (Merck Frosst Canada, Inc., priority 1984, dated 1987).

Each structure is given as a SMILES string. In brackets after ≈: the same amount, converted by molar mass.

One test has as its system asthmatic rats. Briefly: Asthmatic Rat Assay: duration of dyspnoea after egg albumin aerosol challenge. Particulars: p.o. It is filed as in vivo. The text has this: Rats were obtained from an inbred line of asthmatic rats. Both female and male rats from 200 to 300 g were used.
Egg albumin (EA), grade V, crystallized and lyophilized, was obtained from Sigma Chemical Co., St. Louis. Bordetella pertussis vaccine, containing 30×10^9 killed bacteria per ml was obtained from the Institut Armand-Frappier, Laval des Rapides, Quebec. Aluminum hydroxide was obtained from the Regis Chemical Company, Chicago.
The challenge and subsequent respiratory recordings were carried out in a clear plastic box with internal dimensions 10×6×4 inches. The top of the box was removable; in use, it was held firmly in place by four clamps and an airtight seal was maintained by a soft rubber gasket. […] A Fleisch No. 0000 pneumotachograph was inserted into one end of the box and coupled to a Grass volumetric pressure transducer (PT5-A) which was then connected to a Beckman Type R Dynograph through appropriate couplers. While aerosolizing the antigen, the outlets were open and the pneumotachograph was isolated from the chamber. The outlets were closed and the pneumotachograph and the chamber were connected during the recording or the respiratory patterns. For challenge, 2 ml of a 3% solution of antigen in saline was placed into each nebulizer and the aerosol was generated with air from a small Potter diaphragm pump operating at 10 psi and a flow of 8 liters/minute.
Rats were sensitized by injecting (s.c.) 1 ml of a suspension containing 1 mg EA and 200 mg aluminum hydroxide in saline. Simultaneously, they received an intraperitoneal (i.p.) injection of 0.5 ml of B. pertussis vaccine. They were used between days 14 and 18 postsensitization. In order to eliminate the serotonin component of the response, rats were pretreated intravenously 5 minutes prior to aerosol challenge with […] methylserzide. Rats were then exposed to an aerosol of 3% EA in saline for exactly 1 minute, then their respiratory profiles were recorded for a further 25-30 minutes. The duration of continuous dyspnoea was measured from the respiratory recordings.
Compounds were generally administered either intraperitoneally 1 hour prior to challenge or orally 11/2 hours prior to challenge. They were either dissolved in dimethylsulfoxide or suspended in 0.1% methocel and 0.5% Tween 80. The volume injected was 2 ml/kg (intraperitoneally) or 10 ml/kg (orally (p.o.)). Prior to oral treatment rats were starved overnight. Their activity was determined in terms of their ability to decrease the duration of symptoms of dyspnoea in comparison with a group of vehicle-treated controls. Usually, a compound was evaluated at a series of doses and an ED50 was determined. This was defined as the dose (mg/kg) which would inhibit the duration of symptoms by 50%.

Test [1] relates to PAF-induced hyperalgesia in the rat paw. Briefly: PAF-Induced Hyperalgesia Assay. In kind it is in vivo, rat (Sprague-Dawley). The settings on record: 10 mg/kg, i.p.
For a further test, the system named is guinea pig trachea. In words: Antigen Challenge in vitro Assay: contraction of sensitized tracheal chains by egg albumin. In kind it is cell-based. The settings on record: Cavia porcellus; for inhibition at 3 µg/mL: 3 μg/ml. The procedure: Male guinea pigs weighing 300-350 g were sensitized by injecting (I.P.) 0.5 ml of a suspension containing 0.4 mg of egg albumin (Ovalbumin, Grade V, Sigma Chemical Co.) and 4.0 g aluminum hydroxide in 19.6 ml of saline. Two weeks were permitted for sensitization to occur.
Three sensitized guinea pigs were stunned and exsanguinated. The tracheas were removed, freed of adhering tissue and divided longitudinally by cutting through the cartilaginous tissue directly opposite the muscle insertion. Each opened trachea was then transected between every second cartilage. Four of the cut sections were tied together, end to end, in a series with No. 7 silk thread ensuring that the tracheal muscles were all in the same vertical plane. Thus, each chain consisted of tissue from three different animals.
The chain so formed was then suspended under 1 g of tension (by silk ties at each end) in a 20 ml organ bath containing 10 ml of modified^1 Krebs-Henseleit buffer solution gassed with 95% O2 and 5% CO2 at 37° C. Mepyramine (0.55 μg/ml) and indomethacin (2.67 μg/ml) were added to the buffer to avoid the contribution of histamine receptors and cyclooxygenase products to the contraction. To record responses one end of the tracheal chain was attached to a Gould-Statham UC-2 force displacement transducer which was connected to a Beckman Type R-dynograph.The preparations were allowed to equilibrate for one hour during which time the tissues were automatically washed (10 ml volume displacement) every 6 minutes.
After the equilibration period the tissues were primed with methacholine (3 μg/ml; 1.5×10^-5 M), washed and allowed to recover to baseline. The tissues were treated again with a second dose of methacholine, washed, allowed to return to baseline and washed for an additional hour.
Two chains were used as a control. These were incubated in a concentration of egg albumin sufficient to induce an average contraction of 50-80% of the methacholine response.
Each compound to be tested was added to two other baths (at a final concentration in each bath of 10 μg/ml) 15 minutes prior to challenging the fresh chains with egg albumin.
The response of the challenged tissue was expressed as a percentage of the methacholine maximum. The percentage inhibition for each compound was then calculated. Compounds which at 10 μg/ml (final conc.) inhibited the egg albumin response by 50% or more were retested at a lower concentration.

Test [2] deals with LTB4 formation in rat polymorphonuclear leukocytes. Briefly: Rat Polymorphonuclear Leukocyte (P.M.N.) Assay: inhibition of LTB4 formation. In kind it is cell-based. The settings on record: A-23187 stimulated rat PMN, LTB4 bioassay, read-out: PMN I50. The procedure:
Rats under ether anesthesia were injected (i.p.) with 8 ml of a suspension of sodium caseinate (6 grams in ca. 50 ml water). After 15-24 hours the rats were sacrificed (CO2) and the cells from the peritoneal cavity were recovered by lavage with 20 ml of buffer (Eagles MEM containing 30 mM HEPES adjusted to pH 7.4 with NaOH). The cells were pelleted (350×g,5 min.), resuspended in buffer with vigorous shaking, filtered through lens paper, recentrifuged and finally suspended in buffer at a concentration of […]. A 500 μl aliquot of PMN suspension and test compound were preincubated for 2 minutes at 37° C., followed by the addition of 10 μM A-23187. The suspension was stirred for an additional 4 minutes then bioassayed for LTB4 content by adding an aliquot to a second 500 μl portion of the PMN at 37° C. The LTB4 produced in the first incubation caused aggregation of the second PMN, which was measured as a change in light transmission. The size of the assay aliquot was chosen to give a submaximal transmission change (usually -70%) for the untreated control. The percentage inhibition of LTB4 formation was calculated from the ratio of transmission change in the sample to the transmission change in the compound-free control.

The term inhibition denotes the share of the control response that was lost under treatment.

`c1ccc2c(c1)Nc1nccnc1S2` [drawing 27]: in the test on asthmatic rats (5 mg/kg), the “Asthmatic Rat % Inhibition” value came to 30%. Besides, in test [1], the “PAF % Inhibition” value is given as 70%.

On to `CC(=O)N1c2ccccc2Sc2nccnc21`, for which the inhibition at 3 µg/mL with guinea pig trachea is 14%. As to `COc1ccc2c(c1)[S+]([O-])c1nccnc1N2C` (centres unmarked), the “Asthmatic Rat % Inhibition” value in the test with asthmatic rats (3 mg/kg) was found to be 25%. For `COc1ccc2c(c1)Sc1nccnc1N2`, the inhibition at 3 µg/mL in the test with guinea pig trachea was found to be 42%. The IC50 in test [2] was in the range of 0.05 to 0.5 µg/mL (≈ 0.216 to 2.16 µM). Take `COc1ccc2c(c1)Sc1nccnc1N2C`: the “Asthmatic Rat % Inhibition” value with asthmatic rats (3 mg/kg) worked out at 43%. Turning to `CN1c2cc(Cl)c(O)cc2Sc2nccnc21` [drawing 18], in test [2], the IC50 was 0.2 µg/mL (≈ 0.753 µM). For the compound `CN1c2ccc(O)cc2Sc2nccnc21` [drawing 21], the inhibition at 3 µg/mL with guinea pig trachea amounted to 71%. The IC50 in test [2] lay in the range of 1 to 5 µg/mL (≈ 4.32 to 21.6 µM).

Take `CN1c2cc(Cl)c(O)cc2Sc2nccnc21` [drawing 28]: in the test on asthmatic rats (5 mg/kg), the “Asthmatic Rat % Inhibition” value was 47%.

With `c1ccc2c(c1)Nc1nccnc1O2`, the inhibition at 3 µg/mL with guinea pig trachea was 35%. In addition, the IC50 in test [2] was in the range of 0.5 to 1 µg/mL (≈ 2.7 to 5.4 µM). As to `COc1cc2c(cc1Cl)Nc1nccnc1S2`, in test [2], the IC50 was 1 µg/mL (≈ 3.76 µM). Consider `COc1cc2c(cc1Cl)N(C)c1nccnc1S2`, for which, in test [2], the IC50 was 5 µg/mL (≈ 17.9 µM). For the compound `CCOC(=O)CN1c2ccccc2Sc2nccnc21`, in the test with guinea pig trachea, the inhibition at 3 µg/mL worked out at 22%. On to `c1ccc2c(c1)Nc1nccnc1S2` [drawing 17], for which, in the test on guinea pig trachea (10 μg/ml), the inhibition at 10 µg/mL stood at 85%. The IC50 in test [2] is 5 µg/mL (≈ 24.8 µM). On to `CN1c2ccc(O)cc2Sc2nccnc21` [drawing 30], for which the “Asthmatic Rat % Inhibition” value with asthmatic rats (3 mg/kg) worked out at 39%. On to `CN1c2ccccc2Sc2nccnc21`, for which, in test [2], the IC50 was 1 to 5 µg/mL (≈ 4.65 to 23.2 µM).
